Reference: patent US11896704B2, “Compounds useful for the treatment and/or care of the skin, hair, nails and/or mucous membranes” (LUBRIZOL ADVANCED MATERIALS, INC., priority 2017, dated 2024)
The star is where a group is joined. Palmitoyl = CCCCCCCCCCCCCCCC(=O)*; NHhexadecyl = CCCCCCCCCCCCCCCCN*; NHHex = CCCCCCN*

Tested on: JARID1A gene
Assay: JARID1A gene expression in synchronized human epidermal keratinocytes (HEKa), real time PCR arrays
Assay type: cell-based
Conditions: 0.005 mg/ml, one experiment
Experimental: In Vitro Study of JARID1A Gene Expression in Synchronized Human Epidermal Keratinocytes from Adult (HEKa) Using Real Time PCR Arrays.
HEKa cells (Life Technologies) are seeded at 3.0×10^5 cells/well in 12-well plates (2 wells per condition) and incubated in culture medium, Keratinocyte growth medium supplemented with Mix C39016-CaCl2 solution (Promocell). For synchronization, cells were subjected to two alternative cycles of 12 hours each at 37° C. in 5% CO2 humidified air (day mode) and 33° C. in 5% CO2 humidified air (night mode). 12 hours after starting synchronization, cells are incubated with the peptides at 0.5 mg/ml or (5 μg/ml) in culture medium, depending on the toxicity effects of each peptide (non-toxic conditions are selected). Cells treated with medium alone are used as basal condition.
At the end of synchronization, cell lysates are collected at two different times: 7:30 hour (early morning point) and 11:30 hour (midday point). Briefly, cells are lysed directly in the wells, and RNA is purified following the protocol described on the RNeasy™ Mini kit (Qiagen) according to the manufacture's protocol. After RNA elution, quantification and analysis of purity of RNA samples are performed with a nanodrop (Thermo). For each sample, 3 μg of high quality RNA is retrotranscribed with iScript Advanced™ (BioRad) in a final volume of 20 μl. Complete reaction mix is incubated in a thermal cycler (Eppendorf) at 42° C. for 30 minutes, and the reaction is stopped at 85° C. for 5 minutes. Complementary DNA is amplified by qPCR in a real-time PCR thermocycler (BioRad) using SYBR Green Supermix™ (BioRad) in the 96-well plate for use with SYBR® Green (BioRad). SYBR Green binds to double-stranded DNA molecules and emits fluorescence which is quantified, and the fluorescence intensity is proportional to the amount of the product in the PCR reaction. Cycling conditions in BioRad CFX96™ instrument are: 95° C. for 3 minutes, followed by 40 cycles of denaturing at 95° C. for 5 seconds, annealing and elongation at 60° C. for 30 seconds. GAPDH (Glyceraldehyde 3-phosphate dehydrogenase), TBP (TATA box binding protein) and HRPT1 (hypoxanthine phosphoribosyltransferase 1) are used as endogenous controls. Fold change relative to the expression of the sample genes and reference genes is calculated using normalized expression (AA(Ct)) method using CFX Manager Software™ (BioRad).
Fold induction of JARID1A gene at 7:30 hour with respect to basal conditions at 7:30 hour for the samples tested are shown in Table 7. The data for fold induction represent the value of one experiment.

Compound	Fold induction with respect to Basal condition at 7:30h (%)
Palm-Phe-Trp-Met-Lys-Arg-Lys-Arg-Val-Pro-NH2 (Palmitoyl-FWMKRKRVP-NH2; SMILES CCCCCCCCCCCCCCCC(=O)N[C@@H](Cc1ccccc1)C(=O)N[C@@H](Cc1c[nH]c2ccccc12)C(=O)N[C@@H](CCSC)C(=O)N[C@@H](CCCCN)C(=O)N[C@@H](CCCNC(=N)N)C(=O)N[C@@H](CCCCN)C(=O)N[C@@H](CCCNC(=N)N)C(=O)N[C@H](C(=O)N1CCC[C@H]1C(N)=O)C(C)C) [PEP-2]	122.22%
Palm-Phe-Trp-Met-Lys-Arg-Lys-Arg-Val-Pro-OH (Palmitoyl-FWMKRKRVP-OH; SMILES CCCCCCCCCCCCCCCC(=O)N[C@@H](Cc1ccccc1)C(=O)N[C@@H](Cc1c[nH]c2ccccc12)C(=O)N[C@@H](CCSC)C(=O)N[C@@H](CCCCN)C(=O)N[C@@H](CCCNC(=N)N)C(=O)N[C@@H](CCCCN)C(=O)N[C@@H](CCCNC(=N)N)C(=O)N[C@H](C(=O)N1CCC[C@H]1C(=O)O)C(C)C) [PEP-5]	121.55%

Same assay, conditions: 0.5 mg/ml, one experiment

Compound	Fold induction with respect to Basal condition at 7:30h (%)
Ac-Phe-Trp-Met-Lys-Arg-Lys-Arg-Val-Pro-NH2 (Ac-FWMKRKRVP-NH2) [PEP-3]	126.63%
Ac-Phe-Trp-Met-Lys-Arg-Lys-Arg-Val-Pro-OH (Ac-FWMKRKRVP-OH) [PEP-6]	109.08%
H-Phe-Trp-Ile-Gln-Arg-Lys-His-Met-Pro-NH2 (H-FWIQRKHMP-NH2) [PEP-10]	138.09%
H-Phe-Trp-Leu-Arg-Arg-Lys-Lys-Ile-Pro-NH2 (H-FWLRRKKIP-NH2) [PEP-9]	141.90%
H-Phe-Trp-Leu-Lys-Arg-Lys-Arg-Val-Pro-NH2 (H-FWLKRKRVP-NH2) [PEP-11]	127.91%
H-Phe-Trp-Met-Arg-Arg-Lys-Arg-Val-Pro-NH2 (H-FWMRRKRVP-NH2) [PEP-12]	203.75%
H-Phe-Trp-Met-Lys-Arg-Lys-Arg-Ile-Pro-NH2 (H-FWMKRKRIP-NH2) [PEP-14]	187.65%
H-Phe-Trp-Met-Lys-Arg-Lys-Arg-Leu-Pro-NH2 (H-FWMKRKRLP-NH2) [PEP-15]	123.90%
H-Phe-Trp-Met-Lys-Arg-Lys-Arg-Val-Pro-NHC6H13 (H-FWMKRKRVP-NHHex; SMILES CCCCCCNC(=O)[C@@H]1CCCN1C(=O)[C@@H](NC(=O)[C@H](CCCNC(=N)N)NC(=O)[C@H](CCCCN)NC(=O)[C@H](CCCNC(=N)N)NC(=O)[C@H](CCCCN)NC(=O)[C@H](CCSC)NC(=O)[C@H](Cc1c[nH]c2ccccc12)NC(=O)[C@@H](N)Cc1ccccc1)C(C)C) [PEP-7]	159.64%
H-Phe-Trp-Met-Lys-Arg-Lys-Arg-Val-Pro-NHC16H33 (H-FWMKRKRVP-NHhexadecyl; SMILES CCCCCCCCCCCCCCCCNC(=O)[C@@H]1CCCN1C(=O)[C@@H](NC(=O)[C@H](CCCNC(=N)N)NC(=O)[C@H](CCCCN)NC(=O)[C@H](CCCNC(=N)N)NC(=O)[C@H](CCCCN)NC(=O)[C@H](CCSC)NC(=O)[C@H](Cc1c[nH]c2ccccc12)NC(=O)[C@@H](N)Cc1ccccc1)C(C)C) [PEP-8]	113.64%
H-Phe-Trp-Met-Lys-Arg-Lys-Arg-Val-Pro-OH (H-FWMKRKRVP-OH) [PEP-4]	158.92%
H-Phe-Trp-Met-Lys-Arg-Lys-Lys-Val-Pro-NH2 (H-FWMKRKKVP-NH2) [PEP-13]	147.62%

Tested on: mitochondrial complex I (NADH dehydrogenase)
Assay: Mitochondrial complex I activity in human dermal fibroblasts, colorimetric assay
Assay type: cell-based
Conditions: HDFa, 10 mM, 48 hours, positive control
Experimental: Inhibition of Mitochondrial Complex I Activity Using an Assay Based on Colorimetric Detection. Human Dermal Fibroblasts from adult (HDFa, Life Technologies) are seeded at a density of 750.000 cells/75 cm^2 flask (one flask per condition) in culture medium M106 with Low Serum Growth Supplement (Life Technologies). Cells are grown during 8 days at 37° C. in 5% CO2 humidified air. Then, medium is removed and cells are treated with scalar dilutions of the peptide […] (PEP-1, H-[SEQ ID. NO. 2]-NH2) at 1, 0.5 and 0.1 mg/ml in culture medium during 48 hours at 37° C. in 5% CO2 humidified air. Non-treated cells incubated in culture medium alone are used as basal conditions. […] After 48 hours of treatment, cells are detached using trypsin and resuspended in 60 ul of Phosphate buffer saline (Sigma). Total protein concentration is measured by a Pierce BCA Protein Assay Kit (BCA Assay, Thermo Scientific) following manufacturer's protocol to adjust the final protein concentration between 700-1000 ug/ml. Briefly, standards and samples are dispensed and Working Reagent is added to the samples. After 30 minutes of incubation at 37° C., absorbance is measured with a microplate reader (Clariostar®, BMG) at 562 nm. Mitochondrial complex I activity is measured with Complex I enzyme activity microplate assay Kit (Abcam) according to the manufacture's protocol. This assay follows the oxidation of NADH to NAD coupled to the reduction of a specific colorimetric dye, leading to an increase in absorbance at 450 nm. In brief, 200 ul of each sample (adjusted to 700-1000 ug/ml of total protein amount) is incubated for 3 hours. After that, wells are washed several times and incubated with Assay Solution provided with the kit (composed by NADH and the specific dye). For the determination of mitochondrial complex I activity, colorimetric increase of Optical Density (OD) at 450 nm in a kinetic reaction along 1 hour is measured with a microplate reader (Clariostar©, BMG). Results are calculated as the rate of increase in OD at 450 nm between two points in the linear zone over time. The percentage of mitochondrial complex I activity relative to basal conditions after the treatment with […] (PEP-1, H-[SEQ ID. NO. 2]-NH2) is represented in Table 9. These values represent the mean for at least three independent assays.

Compound	Percentage of mitochondrial complex I activity relative to basal condition (%)
CN(C)C(=N)N=C(N)N [Metformin, reference compound]	63.61%

Tested on: Human Dermal Fibroblasts (HDFa)
Assay: Reactive oxygen species (ROS) levels in HDFa, fluorescence
Assay type: cell-based
Conditions: 0.05 mM, 30 min, positive control
Experimental: Evaluation of Reactive Oxygen Species (ROS) Levels on Human Dermal Fibroblasts (HDFa) by a Fluorescence Approach. Human Dermal Fibroblasts from adult (HDFa, Life Technologies) are seeded at a density of 10,000 cells/well (3 wells per condition) in 96-well plates in culture medium M106 with Low Serum Growth Supplement (LSGS, Life Technologies). Cells are grown during 24 hours at 37° C. in 5% CO2 humidified air. Then, medium is removed and cells are treated with the peptide […] (PEP-1, H-[SEQ ID. NO. 2]-NH2) during 16 hours at 37° C. in 5% CO2 humidified air. Non-treated cells incubated in treatment medium alone are used as basal conditions. […] After 30 min at 37° C. in 5% CO2 humidified air, cells are used to quantify ROS levels. ROS levels are quantified using a Cellular Reactive Oxygen Species Detection Assay Kit (Abcam) according to the manufacture's protocol. […] After the period of time, fluorescence signal is determined using Operetta® confocal microscope (PerkinElmer, Inc). Fluorescence intensities are measured using Mitotracker OrangeTM channel (Excitation Filter: 520-550 nm/Emission Filter: 560-630 nm) and are corrected by the determination of the number of nuclei per well. […]

Compound	Percentage of ROS level relative to basal control conditions (%)
OO [Hydrogen peroxide, Hydrogen Peroxide]	1309.23%
